pIC50: −log10 of the molar value. Like-named read-outs stand apart in the source and are kept apart here.
Experiments:
IL-1β, human whole blood = test: Whole blood assay for IL-1β production; format: cell-based; details: read-out: Whole human blood IC50
Summary of the method: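 Human whole blood collected on Na2EDTA was treated with serially diluted compound in saline and then stimulated with LPS at 5.0 ng/ml final, for 16-18 h at 30 °C, in duplicate or triplicate. Plasma IL-1β was measured by ELISA at 1:200 dilution.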

[1] = tested on: IL-1β production, LPS-challenged mice; test: In vivo acute assay for efficacy as anti-inflammatory agent: LPS-induced IL-1β production in mice; set-up: species or system mouse; details: Mus musculus, po, LPS challenged mice, compound PO, 50 mg/kg, read-out: percent inhibition of IL-1β production
Summary of the method: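 CD1 mice (n=6) were challenged with LPS 20 mg/kg IP and given compound IP in olive oil:DMSO:ethanol (90:5:5) 1 h after LPS, or at the time of challenge for some analogs. Blood was taken 7 h after LPS and serum IL-1β was measured by ELISA. Oral gavage at 50 mg/kg was also tested.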

[2] = Pharmacokinetic studies in the mouse (i.v. clearance, plasma levels); format: in vivo; details: CD-1, plasma, iv, 25 mg/kg, mouse
Summary of the method: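 Male CD-1 mice (26-31 g) given 25 mg/kg i.v. via tail vein in 0.02M Tris (2.5 mg/ml), groups of 5 per timepoint from 2 to 120 min. Heparinized plasma deproteinated (perchloric acid or acetonitrile) and analysed by reverse-phase HPLC with UV or MS detection against plasma-spiked calibration (0.5 to 50 μg/ml).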

[3] = 0 h, administered 0 h relative to time of LPS challenge
[4] = 1 h, administered +1 h relative to time of LPS challenge
[5] = 1 h, administered −1 h relative to time of LPS challenge
[6] = 2 h, administered −2 h relative to time of LPS challenge
[7] = Homo sapiens, * = values obtained upon reassay

| SMILES | pIC50 (IL-1β, human whole blood; Homo sapiens, Table 17) | melting point | inhibition at 50 mg/kg [1, 3] [%] | inhibition at 50 mg/kg [1, 6] [%] | pIC50 (IL-1β, human whole blood; [7]) | clearance [2] [mL/min/kg] | other results |
| --- | --- | --- | --- | --- | --- | --- | --- |
| O=C1C[C@H](NC(=O)[C@@H]2CCCN3C(=O)CC[C@H](NC(=O)c4ccccc4)C(=O)N23)C(OCc2ccccc2)O1 (single isomer, unassigned) [Compound 2100n] | 5.40 | 112 to 115 °C | 64 | 21 |  |  | inhibition at 50 mg/kg [1, 4]: 73%; inhibition at 50 mg/kg [1, 5]: 9% |
| O=C1C[C@H](NC(=O)[C@@H]2CCCN3C(=O)CC[C@H](NC(=O)c4cccc5ccccc45)C(=O)N23)C(OCc2ccccc2)O1 (stereo partly drawn) [Compound 213v, [1S,9S(2RS,3S)]N-(2-Benzyloxy-5-oxotetrahydrofuran-3-yl)-6,10-dioxo-9-(naphth-1-oylamino)-1,2,3,4,7,8,9,10-octahydro-6H-pyridazino[1,2-a][1,2]diazepine-1-carboxamide] | 5.96 | 121 to 127 °C |  |  |  |  | clearance ([2]; Table 17): 41 mL/min/kg |
| O=C(O)C[C@H](NC(=O)[C@@H]1CCCN2C(=O)CC[C@H](NC(=O)c3ccccc3)C(=O)N12)C(=O)c1nc2cc(Cl)cc(Cl)c2o1 [Compound 223e, [3S(1S,9S)]3-(9-Benzoylamino-6,10-dioxo-1,2,3,4,7,8,9,10-octahydro-6H-pyridazino-[1,2-a][1,2]diazepine-1-carboxamido)-4-(5,7-dichlorobenzoxazol-2-yl)-4-oxobutanoic acid] |  | 167 to 180 °C |  |  | < 4.70 | 89 |  |
| O=C(O)C[C@H](NC(=O)[C@@H]1CCCN2C(=O)CC[C@H](NC(=O)c3ccccc3)C(=O)N12)C(=O)CSCc1ccccc1Cl [Compound 226e, [3S(1S,9S)]3-(9-Benzoylamino-6,10-dioxo-1,2,3,4,7,8,9,10-octahydro-6H-pyridazino[1,2-a][1,2]-diazepine-1-carboxamido)-5-(2-chlorophenyl)methylthio-4-oxopentanoic acid] |  | 95 to 100 °C |  |  | 5.74 | 109 |  |
| O=C[C@H](CC(=O)O)NC(=O)[C@@H]1CCCN2CCC[C@H](NC(=O)c3ccccc3)C(=O)N12 [Compound 246] |  | 110 to 115 °C |  |  | 5.00 | 31 |  |
| COC(=O)N[C@H]1CCC(=O)N2CCC[C@@H](C(=O)N[C@@H](CC(=O)O)C(=O)COC(=O)c3c(C)cccc3C)N2C1=O [Compound 285, [3S(1S,9S)]5-(2,6-Dimethylbenzoyloxy)-3-[6,10-dioxo-9-(methoxycarbonyl)amino-1,2,3,4,7,8,9,10-octahydro-6H-pyridazino[1,2-a][1,2]diazepine-1-carboxamido]-4-oxopentanoic acid] |  | 110 °C (dec.) |  |  | 6.00 | 130 |  |
| O=C[C@H](CC(=O)O)NC(=O)[C@@H]1CCCN2C(=O)CC[C@H](NC(=O)c3cccc4ccccc34)C(=O)N12 [Compound 408, [3S(1S,9S)]3-[6,10-Dioxo-9-(naphth-1-oylamino)-1,2,3,4,7,8,9,10-octahydro-6H-pyridazino[1,2-a][1,2]diazepine-1-carboxamido]-4-oxobutanoic acid] |  | 157 to 165 °C |  |  | 6.00 | 41 |  |
| O=C[C@H](CC(=O)O)NC(=O)[C@@H]1CCCN2C(=O)CC[C@H](NC(=O)c3ccc4c(c3)OCO4)C(=O)N12 [Compound 415, [3S(1S,9S)]3-[6,10-Dioxo-9-(3,4-methylenedioxybenzoylamino)-1,2,3,4,7,8,9,10-octahydro-6H-pyridazino[1,2-a][1,2]diazepine-1-carboxamido]-4-oxobutanoic acid] |  | 158 to 162 °C |  |  |  | 26 |  |
| COc1cc(C(=O)N[C@H]2CCC(=O)N3CCC[C@@H](C(=O)N[C@H](C=O)CC(=O)O)N3C2=O)cc(OC)c1OC [Compound 417, [3S(1S,9S)]3-[6,10-Dioxo-1,2,3,4,7,8,9,10-octahydro-9-(3,4,5-trimethoxybenzoylamino)-6H-pyridazino[1,2-a][1,2]diazepine-1-carboxamido]-4-oxobutanoic acid] |  | 145 to 155 °C |  |  | 5.22 | 33 |  |
| O=C[C@H](CC(=O)O)NC(=O)[C@@H]1CCCN2C(=O)CC[C@H](NC(=O)c3ccc(NC(=O)Cc4ccccc4)cc3)C(=O)N12 [Compound 486, [3S(1S,9S)]3-{6,10-Dioxo-1,2,3,4,7,8,9,10-octahydro-9-[4-(phenylacetamido)benzamido]-6H-pyridazino[1,2-a][1,2]diazepine-1-carboxamido}-4-oxobutanoic acid] |  | 165 to 169 °C | 15 | 19 | 6.30 |  |  |
| CC(C)CC(=O)Nc1ccc(C(=O)N[C@H]2CCC(=O)N3CCC[C@@H](C(=O)N[C@H](C=O)CC(=O)O)N3C2=O)cc1 [Compound 487, [3S(1S,9S)]3-{6,10-Dioxo-9-[4-(3-methylbutan-1-oylamino)benzamido]-1,2,3,4,7,8,9,10-octahydro-6H-pyridazino[1,2-a][1,2]diazepine-1-carboxamido}-4-oxobutanoic acid] |  | 176 to 180 °C | 20 | 17 | 6.30 |  | pIC50 (IL-1β, human whole blood; * = values obtained upon reassay): 6.40 |
| COC(=O)N[C@H]1CCC(=O)N2CCC[C@@H](C(=O)N[C@@H](CC(=O)O)C(=O)CSc3ncccn3)N2C1=O [Compound 511c, [3S(1S,9S)]3-[6,10-Dioxo-9-(methoxycarbonyl)-amino-1,2,3,4,7,8,9,10-octahydro-6H-pyridazino[1,2-a][1,2]diazepine-1-carboxamido]-5-(2-mercaptopyrimidine)-4-oxopentanoic acid] |  | 105 °C (dec.) |  |  |  |  | clearance ([2]; Table 17): 78 mL/min/kg |
| O=C[C@H](CC(=O)O)NC(=O)[C@@H]1CCCN2C(=O)CCN(NC(=O)c3ccc4c(c3)OCO4)C(=O)N12 [Compound 1015, [3S(4S)]3-[6,10-Dioxo-7-(3,4-methylenedioxybenzoylamino)-1,2,3,4,7,8,9,10-octahydro-6H-pyridazino[1,2-a][1,2,4]triazepine-4-carboxamido]-4-oxobutanoic acid] |  | 170 to 175 °C | 28 | 15 | 5.77 |  |  |
| CC(=O)Nc1ccc(C(=O)NN2CCC(=O)N3CCC[C@@H](C(=O)N[C@H](C=O)CC(=O)O)N3C2=O)cc1 [Compound 1018, [3S(4S)]3-{7-[(4-Acetamido)benzamido]-6,10-Dioxo-1,2,3,4,7,8,9,10-octahydro-6H-pyridazino[1,2-a][1,2,4]-triazepine-4-carboxamido}-4-oxobutanoic acid] | 5.26 | 235 to 240 °C |  |  |  |  |  |
| O=C[C@H](CC(=O)O)NC(=O)[C@@H]1CCCN2C(=O)CCN(NC(=O)c3cc4ccccc4[nH]3)C(=O)N12 [Compound 1075, [3S(4S)]3-[6,10-Dioxo-7-(indole-2-carboxamido)-1,2,3,4,7,8,9,10-octahydro-6H-pyridazino[1,2-a][1,2,4]triazepine-4-carboxamido]-4-oxobutanoic acid] | 5.26 | 210 to 215 °C |  |  |  |  |  |
| O=C1C[C@H](NC(=O)[C@@H]2CCCN3C(=O)CC[C@H](NC(=O)c4ccccc4)C(=O)N23)[C@H](OCc2ccccc2)O1 [Compound 2100o, [1S,9S(2R,3S)]9-Benzoylamino-N-(2-benzyloxy-5-oxotetrahydrofuran-3-yl)-6,10-dioxo-1,2,3,4,7,8,9,10-octahydro-6H-pyridazino[1,2-a][1,2]diazepine-1-carboxamide] | 5.82 | 115 to 117 °C | 68 | 31 |  |  | inhibition at 50 mg/kg [1, 4]: 64%; inhibition at 50 mg/kg [1, 5]: 44% |

Reference: patent publication US20120165319A1, “INHIBITORS OF INTERLEUKIN-1 BETA CONVERTING ENZYME” (VERTEX PHARMACEUTICALS INCORPORATED, priority 1995, published 2012)
